Like-named read-outs stand apart in the source and are kept apart here. Blank lines part the entries; values can stand above or below the compound they belong to.
What was measured:
[1] = target: T1, System xc^− transporter (SXc^−) (Homo sapiens, UniProt Q9UPY5); format: cell-based; settings: SNB-19 cells; for inhibitory activity at SXc^− (in words): initial screen at a single concentration (250 μM or 500 μM)
T1 sequence (Q9UPY5 1-501): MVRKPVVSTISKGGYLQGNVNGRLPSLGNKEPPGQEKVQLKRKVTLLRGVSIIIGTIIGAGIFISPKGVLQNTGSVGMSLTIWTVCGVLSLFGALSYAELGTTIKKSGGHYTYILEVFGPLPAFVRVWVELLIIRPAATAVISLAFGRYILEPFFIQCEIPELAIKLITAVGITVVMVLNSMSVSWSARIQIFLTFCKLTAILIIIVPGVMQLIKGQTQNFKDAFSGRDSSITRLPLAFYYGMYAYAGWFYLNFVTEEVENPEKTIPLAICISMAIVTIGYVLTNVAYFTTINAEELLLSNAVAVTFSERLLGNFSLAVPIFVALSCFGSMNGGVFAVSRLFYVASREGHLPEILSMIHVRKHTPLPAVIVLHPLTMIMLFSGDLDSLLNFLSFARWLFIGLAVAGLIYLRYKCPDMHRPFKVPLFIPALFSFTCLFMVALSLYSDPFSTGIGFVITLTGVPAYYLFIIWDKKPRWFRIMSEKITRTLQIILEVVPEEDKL
T1 sequence (P08195 1-529 partner): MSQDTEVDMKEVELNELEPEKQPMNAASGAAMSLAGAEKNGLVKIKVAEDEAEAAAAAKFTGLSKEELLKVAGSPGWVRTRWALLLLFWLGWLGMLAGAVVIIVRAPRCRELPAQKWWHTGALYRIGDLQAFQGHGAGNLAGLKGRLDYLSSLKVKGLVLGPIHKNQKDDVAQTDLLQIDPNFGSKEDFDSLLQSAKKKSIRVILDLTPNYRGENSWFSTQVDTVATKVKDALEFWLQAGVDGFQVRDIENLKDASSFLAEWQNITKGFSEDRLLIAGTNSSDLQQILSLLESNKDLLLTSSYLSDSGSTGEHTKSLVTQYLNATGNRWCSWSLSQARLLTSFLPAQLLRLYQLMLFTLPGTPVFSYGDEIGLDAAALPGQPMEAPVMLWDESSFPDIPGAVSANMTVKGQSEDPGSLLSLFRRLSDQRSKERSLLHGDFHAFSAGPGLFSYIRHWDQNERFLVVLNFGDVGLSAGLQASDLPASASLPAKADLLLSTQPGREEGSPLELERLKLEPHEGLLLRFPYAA

[2] = target: SXc^−; settings: read-out: Ki at SXc^−; cited from earlier work
[3] = system: SXc^−; settings: cited from earlier work
[4] = system: AMPA receptor; settings: brain slice; cited from earlier work
[5] = target: T2, SXc^− (Homo sapiens, UniProt Q9UPY5); format: cell-based; settings: SNB-19 cells, Na-free; for substrate-induced efflux of L-Glu (substrate activity): 500 μM; for attenuation of L-Cys2-induced efflux of L-Glu: added together with L-cystine
T2 sequence (Q9UPY5 1-501): T1 sequence (Q9UPY5 1-501)
T2 sequence (P08195 1-529 partner): T1 sequence (P08195 1-529 partner)

[6] = system: GluR2; settings: S1S2 construct filter assay; Gouaux, personal communication; cited from earlier work
[7] = Conversion of open hydrazone to closed isoxazolo[3,4-d]pyridazinone in solution; format: physicochemical; settings: on standing in solution, 11a to 13a

Compound: N[C@H](C(=O)O)c1ccc(C(=O)O)cc1 [Compound 4-S-CPG, 4-S-carboxy-phenylglycine]
Ki [2]: ~5 µM
substrate activity at SXc^− (in words) [3]: essentially a non-substrate inhibitor

Compound: Cc1onc(O)c1C[C@H](N)C(=O)O [Compound 6, aminomethyl isoxazole propionic acid, reference compound]
inhibitory activity at SXc^− (in words) [1]: no discernable activity

Compound: C/C(=N\NC(N)=O)c1c(C(=O)O)noc1C [Compound 9b]
GluR2 binding [6]: no detectable GluR2 binding

Compound: C/C(=N\Nc1ccc([N+](=O)[O-])cc1[N+](=O)[O-])c1c(C(=O)O)noc1C [Compound 11d, 4-{1-[(2,4-Dinitro-phenyl)-hydrazono]-ethyl}-5-methyl-isoxazole-3-carboxylic acid]
GluR2 binding [6]: no detectable GluR2 binding

Compound: C/C(=N\Nc1ccc([N+](=O)[O-])cc1[N+](=O)[O-])c1c(C(=O)O)noc1COCc1ccc2ccccc2c1 [Compound 17, 4-{1-[(2,4-Dinitro-phenyl)-hydrazono]-ethyl}-5-(naphthalen-2-ylmethoxymethyl)-isoxazole-3-carboxylic acid]
inhibitory activity at SXc^− (in words) [1]: virtually devoid of activity

Compound: N[C@@H](Cn1oc(=O)[nH]c1=O)C(=O)O [QA, quisqualate]
Ki [2]: ~5 µM
rate of exchange with L-Glu relative to L-Cys2 [3]: 35%

Compound: L-cystine [reference compound]
substrate-induced efflux of L-Glu (substrate activity) [5]: produced a significant efflux of L-glutamate over baseline

The next lines start with results.

inhibition of SXc^−-mediated L-Glu uptake ([1]; compound 500 μM (100 minus % of control of Table 2)): 86%
inhibitory activity at SXc^− (in words) [1]: moderate amount of inhibitory activity
Compound: 4-{1-[(3,5-Bis-trifluoromethyl-phenyl)-hydrazono]-ethyl}-5-(2-naphthalen-2-yl-ethyl)-isoxazole-3-carboxylic acid [Compound 11e]

inhibitory activity at SXc^− (in words) [1]: no discernable activity
Compound: Cc1onc(C(=O)O)c1C[C@H](N)C(=O)O [Compound 7, amino-3-carboxy-5-methylisoxazole propionic acid, reference compound]

inhibitory activity at SXc^− (in words) [1]: markedly inhibit
Compound: N[C@@H](Cc1c(C(=O)O)noc1CCc1ccccc1)C(=O)O [Compound 7d]
displacement of radiolabeled AMPA [4]: essentially no ability to displace radiolabeled AMPA

inhibitory activity at SXc^− (in words) [1]: markedly inhibit
Compound: N[C@@H](Cc1c(C(=O)O)noc1COCc1ccccc1)C(=O)O [Compound 7e, 4-[(2R,S)-2-amino-2-carboxyethyl]-5-[benzyloxymethyl]isoxazole-3-carboxylic acid]

inhibitory activity at SXc^− (in words) [1]: markedly inhibit
Compound: N[C@@H](Cc1c(C(=O)O)noc1CCc1cccc2ccccc12)C(=O)O [Compound 7f]
displacement of radiolabeled AMPA [4]: essentially no ability to displace radiolabeled AMPA

inhibitory activity at SXc^− (in words) [1]: markedly inhibit
attenuation of L-Cys2-induced efflux of L-Glu ([5]; listed as S-2-naphthyl-ACPA): attenuate L-cystine-induced efflux
Compound: N[C@@H](Cc1c(C(=O)O)noc1CCc1ccc2ccccc2c1)C(=O)O [Compound 7g]
substrate-induced efflux of L-Glu (substrate activity) [5]: did not induce an efflux of L-Glu over background levels
attenuation of L-Cys2-induced efflux of L-Glu [5]: did attenuate the ability of L-Cys2 to exchange with intracellular L-Glu
displacement of radiolabeled AMPA [4]: essentially no ability to displace radiolabeled AMPA

inhibitory activity at SXc^− (in words) [1]: moderate amount of inhibitory activity
Compound: C/C(=N\NC(=O)Nc1ccccc1)c1c(C(=O)O)noc1C [Compound 9c]
GluR2 binding [6]: no detectable GluR2 binding

time for the open form to convert to the closed [3,4-d] form in solution [7]: a matter of a few hours
Compound: C/C(=N\Nc1ccccc1)c1c(C(=O)O)noc1C [Compound 11a, 5-Methyl-4-[1-(phenyl-hydrazono)-ethyl]-isoxazole-3-carboxylic acid]
